Test results from patent US20250114387A1, “PHARMACEUTICAL COMPOSITION COMPRISING ENAVOGLIFLOZIN FOR PREVENTING OR TREATING OBESITY IN CANINE ANIMALS” (DAEWOONG PHARMACEUTICAL CO., LTD., priority 2022, published 2025).

Columns and labels:
obese dogs [1] = assay: Clinical trial in obese dogs: hematological tests; type: in vivo
Experimental: (§1) A total of 20 dogs were selected and divided into 4 groups with 5 dogs in each group: a normal obese control (OC); hereinafter, referred to as a control (OC)), an enavogliflozin 0.2-administered group, an enavogliflozin 0.5-administered group, and an enavogliflozin 1-administered group. The control was fed regular feed, and the enavogliflozin-administered groups were fed regular feed supplemented with enavogliflozin at doses of 0.2, 0.5, or 1 mg/kg, respectively. The feed was supplemented with enavogliflozin once a day for 8 weeks and given orally.
Hematological tests were performed on the day before the first administration of enavogliflozin and once every two weeks for the next 10 weeks. A portion of the blood collected on the day of the test was stored in a CBC tube containing the anticoagulant EDTA-2K to assess a red blood cell (RBC) count, hematocrit (Hct), a hemoglobin (Hb) concentration, a white blood cell (WBC) count, and a platelet (PLT) count using an automated hematology analyzer (ADVIA 2120i™, Siemens Healthcare Diagnostics, Vienna, Austria).

[2] = Non-clinical toxicity test: 13 weeks repeated oral administration, changes in body weight; type: in vivo, beagles
Experimental: Changes in body weight were confirmed after administering enavogliflozin to four female and four male 6-month-old normal beagles at 0 (control, gelatin capsule), 1, 3, and 6 mg/kg/day for 13 weeks. The above amounts of enavogliflozin were charged in a gelatin capsule and administered daily.

obese dogs [3] = assay: Clinical trial in obese dogs: BCS, body weight, chest and waist circumference, resting energy requirement, fat thickness, body fat; type: in vivo
From the text: Adult dogs which were naturally obese but otherwise healthy were selected regardless of breed, sex, and altered status, and informed consent was obtained from the dog owners for participation in the clinical trial.
As a result of physical examination of all dogs (including body weight and BCS (a total of 9 levels), FIG. 1 and Table 1), those diagnosed as obese were selected. The BCS used to select dogs is classified into a total of 9 levels, and dogs with a BCS of level 6 or higher were selected, and detailed criteria are presented in Table 1 and FIG. 1.
as §1
Body weights (BW), chest circumferences, and waist circumferences were measured immediately before the first intake of enavogliflozin-supplemented feed, and once every two weeks for the next 10 weeks. The chest circumferences and waist circumferences were measured four times each at the thickest part of the chest and the thinnest part between the chest and hind legs, and an average size was calculated. Resting energy requirement (RER) was calculated using Equation 1 in the reference document (Brooks et al., Journal of the American Animal Hospital Association 50, 1-11. (2014)).
Fat thicknesses were evaluated by measuring the perpendicular distance from the T10 spinal process to the skin by radiography (Titan 2000 X-ray system, COMED Medical Systems Co., Ltd., Seoul, Korea) on the first day of enavogliflozin administration, and on weeks 4, 8, and 10 of administration. Body fat was measured with a body fat meter every two weeks for a total of 10 weeks after the start of enavogliflozin administration.

obese dogs [4] = assay: Clinical trial in obese dogs: serum insulin concentration (ELISA); type: in vivo; settings: for Insulin: serum
Experimental: as §1
Serum insulin concentrations were measured 2, 4, 6, 8, and 10 weeks after the start of enavogliflozin administration using a Quantikine Canine Insulin ELISA kit (Catalog no. DINS00, R&D Systems, Minneapolis, MN, USA) according to the manufacturer's protocol. Urine biochemical parameters were evaluated using urine test strips 2, 4, 6, and 10 weeks after the start of enavogliflozin administration, and urinary glucose (GLU) excretion was measured using UriSCAN® Strip (YD Diagnostics Corp., Yong-in, Korea).

[5] = 0.2 mg/kg once a day oral for 8 weeks
[6] = 0.5 mg/kg once a day oral for 8 weeks
[7] = 1 mg/kg once a day oral for 8 weeks
[8] = 0.2 mg/kg once a day oral for 8 weeks, week 0
[9] = 0.2 mg/kg once a day oral for 8 weeks, week 2
[10] = 0.2 mg/kg once a day oral for 8 weeks, week 4
[11] = 0.2 mg/kg once a day oral for 8 weeks, week 6
[12] = 0.2 mg/kg once a day oral for 8 weeks, week 8
[13] = 0.2 mg/kg once a day oral for 8 weeks, week 10
[14] = 0.5 mg/kg once a day oral for 8 weeks, week 0
[15] = 0.5 mg/kg once a day oral for 8 weeks, week 2
[16] = 0.5 mg/kg once a day oral for 8 weeks, week 4
[17] = 0.5 mg/kg once a day oral for 8 weeks, week 6
[18] = 0.5 mg/kg once a day oral for 8 weeks, week 8
[19] = 0.5 mg/kg once a day oral for 8 weeks, week 10
[20] = 1 mg/kg once a day oral for 8 weeks, week 0
[21] = 1 mg/kg once a day oral for 8 weeks, week 2
[22] = 1 mg/kg once a day oral for 8 weeks, week 4
[23] = 1 mg/kg once a day oral for 8 weeks, week 6
[24] = 1 mg/kg once a day oral for 8 weeks, week 8
[25] = 1 mg/kg once a day oral for 8 weeks, week 10
[26] = all enavogliflozin-administered groups

OC[C@H]1O[C@@H](c2cc(Cc3ccc(C4CC4)cc3)c(Cl)c3c2CCO3)[C@H](O)[C@@H](O)[C@@H]1O [Enavogliflozin, enavogliflozin]
Hb (obese dogs [1]; [5]): 16.34 ± 2.68 g/dL
Hct (obese dogs [1]; [5]): 49.86 ± 7.08%
Platelet (obese dogs [1]; [5]): 392.20 ± 11.16 ×10^3/μL
RBC (obese dogs [1]; [5]): 6.92 ± 0.79 ×10^6 μL
WBC (obese dogs [1]; [5]): 11.12 ± 3.69 ×10^3 μL
Hb (obese dogs [1]; [6]): 16.40 ± 0.70 g/dL
Hct (obese dogs [1]; [6]): 50.26 ± 1.94%
Platelet (obese dogs [1]; [6]): 307.40 ± 6.02 ×10^3/μL
WBC (obese dogs [1]; [6]): 7.75 ± 2.04 ×10^3 μL
Hb (obese dogs [1]; [7]): 16.16 ± 2.15 g/dL
Hct (obese dogs [1]; [7]): 46.76 ± 6.13%
Platelet (obese dogs [1]; [7]): 299.10 ± 7.65 ×10^3/μL
RBC (obese dogs [1]; [7]): 6.55 ± 1.08 ×10^6 μL
WBC (obese dogs [1]; [7]): 10.01 ± 3.35 ×10^3 μL
platelet (PLT) count compared to the control (OC) (obese dogs [1]; 1 mg/kg, p<0.05): significantly lower than that of the control (OC)
hematological indicators, differences between the administration groups (obese dogs [1]; 10-week trial period, except for the platelet (PLT) count): no significant differences
body weight decrease compared to the control ([2]; normal female beagles, 1 mg/kg/day oral): 19.6%
body weight decrease compared to the control ([2]; normal female beagles, 3 mg/kg/day oral): 18.5%
body weight decrease compared to the control ([2]; normal female beagles, 6 mg/kg/day oral): 33.2%
body weight decrease compared to the control ([2]; normal male beagles, 1 mg/kg/day oral): 17.7%
body weight decrease compared to the control ([2]; normal male beagles, 3 mg/kg/day oral): 16%
body weight decrease compared to the control ([2]; normal male beagles, 6 mg/kg/day oral): 29.9%
body fat percentage, rank among groups (obese dogs [3]; 0.2 mg/kg): lowest
Change rates of chest circumference (obese dogs [3]; [8]): 100.00 ± 0.00%
Change rates of resting energy requirement (obese dogs [3]; [8]): 100.00 ± 0.00%
Change rates of waist circumference (obese dogs [3]; [8]): 100.00 ± 0.00%
Change rates of chest circumference (obese dogs [3]; [9]): 99.20 ± 3.44%
Change rates of resting energy requirement (obese dogs [3]; [9]): 96.98 ± 2.69%
Change rates of waist circumference (obese dogs [3]; [9]): 100.53 ± 4.71%
Change rates of chest circumference (obese dogs [3]; [10]): 97.16 ± 2.74%
Change rates of resting energy requirement (obese dogs [3]; [10]): 93.41 ± 5.79%
Change rates of waist circumference (obese dogs [3]; [10]): 97.39 ± 12.15%
Change rates of chest circumference (obese dogs [3]; [11]): 95.08 ± 3.96%
Change rates of resting energy requirement (obese dogs [3]; [11]): 95.21 ± 4.10%
Change rates of waist circumference (obese dogs [3]; [11]): 98.96 ± 15.47%
Change rates of chest circumference (obese dogs [3]; [12]): 96.08 ± 2.60%
Change rates of resting energy requirement (obese dogs [3]; [12]): 94.64 ± 3.59 %
Change rates of waist circumference (obese dogs [3]; [12]): 98.89 ± 11.98%
Change rates of chest circumference (obese dogs [3]; [13]): 99.18 ± 3.01%
Change rates of resting energy requirement (obese dogs [3]; [13]): 96.15 ± 4.75%
Change rates of waist circumference (obese dogs [3]; [13]): 101.98 ± 10.78%
BCS compared to the control (OC) (obese dogs [3]; 0.2 mg/kg, at 4, 8, and 10 weeks after the start of administration, p<0.05): significantly lower than the control (OC)
resting energy requirement (RER) compared to the control (OC) (obese dogs [3]; 0.2 mg/kg, at 4 weeks and 8 weeks after the start of administration, p<0.05): significantly lower
body weight compared to the control (OC) (obese dogs [3]; 0.2 mg/kg, from 4 weeks after the start of administration, p<0.05): significantly lower than the control (OC)
fat thickness change, significance (obese dogs [3]; 0.2 mg/kg, week 8 and week 10): significant at week 8 and week 10
body weight (obese dogs [3]; 0.5 mg/kg): decreasing at week 2 and week 4 of the trial and then slowly increasing
Change rates of chest circumference (obese dogs [3]; [14]): 100.00 ± 0.00%
Change rates of resting energy requirement (obese dogs [3]; [14]): 100.00 ± 0.00%
Change rates of waist circumference (obese dogs [3]; [14]): 100.00 ± 0.00%
Change rates of chest circumference (obese dogs [3]; [15]): 98.19 ± 4.31%
Change rates of resting energy requirement (obese dogs [3]; [15]): 98.63 ± 0.72%
Change rates of waist circumference (obese dogs [3]; [15]): 99.57 ± 1.71%
Change rates of chest circumference (obese dogs [3]; [16]): 97.16 ± 3.23%
Change rates of resting energy requirement (obese dogs [3]; [16]): 97.93 ± 1.00%
Change rates of waist circumference (obese dogs [3]; [16]): 98.45 ± 4.94%
Change rates of chest circumference (obese dogs [3]; [17]): 95.60 ± 4.55%
Change rates of resting energy requirement (obese dogs [3]; [17]): 97.54 ± 2.73%
Change rates of waist circumference (obese dogs [3]; [17]): 96.30 ± 3.83%
Change rates of chest circumference (obese dogs [3]; [18]): 93.90 ± 3.11%
Change rates of resting energy requirement (obese dogs [3]; [18]): 96.92 ± 2.00%
Change rates of waist circumference (obese dogs [3]; [18]): 93.84 ± 5.54%
Change rates of chest circumference (obese dogs [3]; [19]): 96.43 ± 2.76%
Change rates of resting energy requirement (obese dogs [3]; [19]): 98.79 ± 2.30%
Change rates of waist circumference (obese dogs [3]; [19]): 96.00 ± 4.72%
BCS (obese dogs [3]; 0.5 mg/kg, entire experimental period): decreased during the entire experimental period
Change rates of chest circumference (obese dogs [3]; [20]): 100.00 ± 0.00%
Change rates of resting energy requirement (obese dogs [3]; [20]): 100.00 ± 0.00%
Change rates of waist circumference (obese dogs [3]; [20]): 100.00 ± 0.00%
Change rates of chest circumference (obese dogs [3]; [21]): 94.79 ± 6.67%
Change rates of resting energy requirement (obese dogs [3]; [21]): 97.75 ± 2.32%
Change rates of waist circumference (obese dogs [3]; [21]): 95.97 ± 11.67%
Change rates of chest circumference (obese dogs [3]; [22]): 99.81 ± 2.43%
Change rates of resting energy requirement (obese dogs [3]; [22]): 98.11 ± 2.18%
Change rates of waist circumference (obese dogs [3]; [22]): 99.18 ± 8.09%
Change rates of chest circumference (obese dogs [3]; [23]): 100.54 ± 4.98%
Change rates of resting energy requirement (obese dogs [3]; [23]): 98.95 ± 2.07%
Change rates of waist circumference (obese dogs [3]; [23]): 103.75 ± 10.54%
Change rates of chest circumference (obese dogs [3]; [24]): 99.20 ± 4.49%
Change rates of resting energy requirement (obese dogs [3]; [24]): 99.19 ± 4.05%
Change rates of waist circumference (obese dogs [3]; [24]): 99.76 ± 12.53%
Change rates of chest circumference (obese dogs [3]; [25]): 100.24 ± 5.15%
Change rates of resting energy requirement (obese dogs [3]; [25]): 99.97 ± 6.15%
Change rates of waist circumference (obese dogs [3]; [25]): 101.33 ± 14.44%
BCS compared to the control (OC) (obese dogs [3]; 1 mg/kg, at the end of the experiment): lower than the control (OC) at the end of the experiment
BCS compared to the control (OC) (obese dogs [3]; 1 mg/kg, during the experiment): slightly increased compared to the control (OC)
BCS, body weight, body fat percentage, fat thickness, and chest and waist circumferences (obese dogs [3]; 8-week administration): reduced
fat thickness (obese dogs [3]; all administration groups (0.2, 0.5, 1 mg/kg)): decreased in all administration groups
chest circumference (obese dogs [3]; [26]): decreased
waist circumference (obese dogs [3]; [26]): decreased
body fat percentage (obese dogs [3]; all groups (0.2, 0.5, 1 mg/kg)): no significant differences
anti-obesity results, comparison of doses (obese dogs [3]; feed supplemented with 0.2 mg/kg): most effective results
insulin concentration compared to the control (OC) (obese dogs [4]; 0.5 mg/kg): significantly lower
serum insulin concentration compared to the control (OC) (obese dogs [4]; all administration groups): decreased compared to the control (OC)
Insulin (obese dogs [4]; [5]): 126.60 ± 15.45 ng/mL
Insulin (obese dogs [4]; [6]): 99.82 ± 18.48 ng/mL
Insulin (obese dogs [4]; [7]): 110.75 ± 21.96 ng/mL
